Experimental data published in patent publication US20220257557A1, “PHARMACEUTICAL COMPOSITION FOR PREVENTING OR TREATING NEUROLOGICAL DISEASES” (GLACEUM INC., priority 2019, published 2022).

Columns and labels:
RAW264.7 cells = assay: NO and PGE2 production after LPS; assay type: cell-based; conditions: 3 h pretreatment (Table 3 amounts), LPS 1 μg/ml 24 h
Outline: (§1)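 RAW264.7 or BV2 cells (5×10^5 cells/well) in DMEM with 10% FBS were pretreated with compound, then stimulated with 1 μg/ml LPS for 24 h. iNOS and COX-2 expression by Western blot; NO and PGE2 production measured. Compound toxicity checked by MTT.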

BV2 cells = assay: NO and PGE2 production after LPS; assay type: cell-based; conditions: 3 h pretreatment (Table 3 amounts), LPS 1 μg/ml 24 h
Outline: as §1

SH-SY5Y cells [1] = assay: Reactive oxygen species generation (DCF-DA) after MPP+; assay type: cell-based, Human; conditions: 1 mM MPP+ 24 h, then 0.0001-1 μM compound 24 h, FIG. 4
Method: (§2) Human neuronal SH-SY5Y cells were cultured in a 1:1 DMEM/F12 medium containing 10% FBS (fetal bovine serum) at 37° C. under 5% carbon dioxide and 95% air. The cultured cells were transferred to a 96-well cell culture plate at a density of 2*10^4 cells/well and cultured for 24 hours. Thereafter, after replacement with serum-restricted medium (1:1 DMEM/F12 medium containing 0.5% FBS), the cells were cultured for 16 hours. Then, the cultured cells were treated with 1 mM MPP+ (1-methyl-4-phenylpyridinium) and cultured for 24 hours, thus inducing mitochondrial dysfunction in the cells. […]
Based on the principle that 2′,7′-dichlorofluorescein diacetate (DCF-DA) is oxidized to fluorescent DCF by reaction with reactive oxygen species, the level of reactive oxygen species generation was measured. […] Then, the fluorescence intensity of DCF at an excitation wavelength of 485 nm and an emission wavelength of 535 nm and the fluorescence intensity of bisbenzimide at an excitation wavelength of 335 nm and an emission wavelength of 460 nm were measured using a fluorescence analyzer to determine the level of reactive oxygen species generation. […]
The concentration of DCF determined from the fluorescence intensity was expressed as a percentage of the normal control.

[2] = molecular target: T1, rePON1 (PON1, paraoxonase 1) (Homo sapiens, UniProt P27169); assay: Prevention of inhibition of PON1 activity by oxidized linolenic acid (TBBL substrate); assay type: biochemical
T1 construct: purchased Thermo Corp. RP-75678
Outline: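 Recombinant PON1 preincubated 30 min at room temperature with compound (30 μM) in 50 mM Tris-HCl/1 mM CaCl2, then exposed to oxidized linolenic acid for 2 h. Activity read with TBBL and DTNB at 420 nm, 37 °C, every 2 min for 1 h, expressed relative to uninhibited PON1.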

SH-SY5Y cells [3] = assay: Cell death from MPP+ mitochondrial damage, MTT cell viability; assay type: cell-based, Human; conditions: 1 mM MPP+ 24 h, then 0.0001-1 μM compound 24 h, FIG. 2
Method: as §2
Each of the cultures obtained in Experimental Example 3-1 was treated with 0.2 mg/ml of 3-(4,5-dimethylthiazol-2-yl)-2,5-diphenyl-tetrazolium bromide (MTT; Sigma-Aldrich) and cultured for 4 hours. The MTT formazan precipitate formed by the viable cells was dissolved in 100 μl of 0.04N hydrochloric acid/isopropanol, and the absorbance at 540 nm was measured using an ELISA microplate reader (Molecular Devices).
The absorbances of controls were measured in the same manner as the above-described method, except for using a sample to which DMSO was added (normal control) instead of MMP+ and the compound of Formula III-1 and a sample to which the compound of Formula III-1 was not added (negative control).
The cell viability percentage was calculated from the absorbance.

T1 sequence (P27169 whole entry): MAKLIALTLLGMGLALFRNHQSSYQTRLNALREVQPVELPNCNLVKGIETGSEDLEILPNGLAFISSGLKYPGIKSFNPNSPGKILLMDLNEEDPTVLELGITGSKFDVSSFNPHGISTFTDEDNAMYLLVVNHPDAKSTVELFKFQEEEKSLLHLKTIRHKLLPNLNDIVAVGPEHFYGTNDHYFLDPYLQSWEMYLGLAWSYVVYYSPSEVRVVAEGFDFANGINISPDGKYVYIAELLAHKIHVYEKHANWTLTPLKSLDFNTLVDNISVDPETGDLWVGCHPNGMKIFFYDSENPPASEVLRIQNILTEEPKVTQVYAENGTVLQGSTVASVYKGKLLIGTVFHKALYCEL

For `CCOc1ccc(C2COc3c(ccc4c3CCC(C)(C)O4)C2)c(O)c1` (stereo not drawn) [Formula III-1, 2-(8,8-dimethyl-2,3,4,8,9,10-hexahydropyrano[2,3-f]chromen-3-yl)-5-ethoxyphenol], which “production of NO” value (RAW264.7 cells) is on record?
Its value is “concentration-dependently decreased”.

And the “production of PGE2” value (RAW264.7 cells)?
The value was “concentration-dependently decreased”.

What about the “production of NO” value (BV2 cells) of the same compound?
Its value is “concentration-dependently decreased”.

What about the “production of PGE2” value (BV2 cells) of the same compound?
Its value is “concentration-dependently decreased”.

And the “level of intracellular reactive oxygen species generation (DCF)” value (SH-SY5Y cells [1])?
The value was “decreased”.

What about the activity at 30 µM ([2]; 30 μM compound with rePON1 30 min, then oxidized linolenic acid 2 h, TBBL substrate, normal control 100, negative control 73.64) of the same compound?
Its activity at 30 µM is 89%.

And the “extent to which inhibition of rePON1 activity was prevented, compared with glabridin” value ([2]; compound 30 μM vs glabridin 30 μM, result in words)?
The value was “greater”.

What about the “inhibition of rePON1 activity by oxidized linolenic acid” value ([2]; compound 30 μM, result in words) of the same compound?
The value was “prevented”.

What about the “function of mitochondria damaged by MPP+ (cell viability percentage)” value (SH-SY5Y cells [3]) of the same compound?
Its value is “restored”.
